One assay has as its system Phytophthora infestans. The assay is described as follows: whole plant or invertebrate. In kind it is in vivo. To be noted: in Solanum lycopersicum, foliar, read-out: control of Phytophthora infestans compared to untreated control.
The next assay has as its system Pythium ultimum. The assay is described as follows: Pythium ultimum / liquid culture (seedling damping off). To be noted: Globisporangium ultimum, liquid culture in PDB, 24 °C, 2-3 days after application, read-out: control of Pythium ultimum (inhibition of growth, photometric) compared to untreated control. The format is cell-based. The protocol:
Pythium ultimum/Liquid Culture (Seedling Damping Off):
Mycelia fragments and oospores of a newly grown liquid culture of the fungus are directly mixed into nutrient broth (PDB potato dextrose broth). After placing a (DMSO) solution of test compound into a microtiter plate (96-well format), the nutrient broth containing the fungal mycelia/spore mixture is added. The test plates are incubated at 24° C. and the inhibition of growth is determined photometrically 2-3 days after application.

Bounds are passed on as bounds.

A word on the inhibition: it is how much of the control response was suppressed. Regarding `CNC(=O)Nc1ccc(-c2cnc3ccc(C(=O)N(C)c4ccc(F)c(OC)c4)cn23)cn1` [Compound 81, N-(4-fluoro-3-methoxy-phenyl)-N-methyl-3-[6-(methylcarbamoyl-amino)-3-pyridyl]imidazo[1,2-a]pyridine-6-carboxamide], the pest or weed control at 200 ppm in the assay on Phytophthora infestans is no less than 80%. Moreover, the inhibition at 20 ppm in the assay on Pythium ultimum is no less than 80%.
For `CCc1cccc(N(C)C(=O)c2ccc3ncc(-c4ccc(NC(=O)OC)cc4)n3c2)c1` [Compound 10, methyl N-[4-[6-[(3-ethylphenyl)-methyl-carbamoyl]imidazo[1,2-a]pyridin-3-yl]phenyl]carbamate], the pest or weed control at 200 ppm in the assay with Phytophthora infestans was no less than 80%. Further, the inhibition at 20 ppm with Pythium ultimum was no less than 80%.
Consider `CCN(C(=O)c1ccc2ncc(-c3ccc(NC(=O)OC)nc3)n2c1)c1ccc(Cl)cc1` [Compound 129, methyl N-[5-[6-[(4-chlorophenyl)-ethyl-carbamoyl]imidazo[1,2-a]pyridin-3-yl]-2-pyridyl]carbamate], for which the pest or weed control at 200 ppm in the assay with Phytophthora infestans is no less than 80%. Further, the inhibition at 20 ppm with Pythium ultimum is no less than 80%.
Regarding `CNC(=O)CN(C(=O)c1ccc2ncc(-c3ccc(NC(=O)OC)nc3)n2c1)c1ccc(F)c(OC)c1` [Compound 97, methyl N-[5-[6-[(4-fluoro-3-methoxy-phenyl)-[2-(methylamino)-2-oxo-ethyl]carbamoyl]imidazo[1,2-a]pyridin-3-yl]-2-pyridyl]carbamate], the pest or weed control at 200 ppm with Phytophthora infestans is no less than 80%. Further, the inhibition at 20 ppm in the assay with Pythium ultimum is no less than 80%.
Take `CCOCCN(C(=O)c1ccc2ncc(-c3ccc(NC(=O)OC)nc3)n2c1)c1ccc(Cl)cc1` [Compound 123, methyl N-[5-[6-[(4-chlorophenyl)-(2-ethoxyethyl)carbamoyl]imidazo[1,2-a]pyridin-3-yl]-2-pyridyl]carbamate]: the pest or weed control at 200 ppm in the assay on Phytophthora infestans is no less than 80%. Also, the inhibition at 20 ppm in the assay on Pythium ultimum was no less than 80%.
On to `C#Cc1cccc(N(C)C(=O)c2ccc3ncc(-c4ccc(NC(=O)OC)nc4)n3c2)c1` [Compound 43, methyl N-[5-[6-[(3-ethynylphenyl)-methyl-carbamoyl]imidazo[1,2-a]pyridin-3-yl]-2-pyridyl]carbamate], for which, in the assay on Phytophthora infestans, the pest or weed control at 200 ppm was no less than 80%. Also, the inhibition at 20 ppm in the assay with Pythium ultimum was no less than 80%.
For `COC(=O)Nc1ccc(-c2cnc3ccc(C(=O)N(C)c4cncc(OC)c4)cn23)cn1` [Compound 55, methyl N-[5-[6-[(5-methoxy-3-pyridyl)-methyl-carbamoyl]imidazo[1,2-a]pyridin-3-yl]-2-pyridyl]carbamate], the pest or weed control at 200 ppm in the assay with Phytophthora infestans was no less than 80%. Further, the inhibition at 20 ppm in the assay with Pythium ultimum was no less than 80%.
`COC(=O)Nc1ccc(-c2cnc3ccc(C(=O)N(CC(C)C)c4ccccc4)cn23)cn1` [Compound 134, methyl N-[5-[6-[isobutyl(phenyl)carbamoyl]imidazo[1,2-a]pyridin-3-yl]-2-pyridyl]carbamate]: in the assay with Phytophthora infestans, the pest or weed control at 200 ppm is no less than 80%.
On to `COC(=O)Nc1ccc(-c2cnc3ccc(C(=O)N(C)c4cccc(F)c4)cn23)cn1` [Compound 52, methyl N-[5-[6-[(3-fluorophenyl)-methyl-carbamoyl]imidazo[1,2-a]pyridin-3-yl]-2-pyridyl]carbamate], for which the pest or weed control at 200 ppm in the assay on Phytophthora infestans is no less than 80%. Also, the inhibition at 20 ppm in the assay on Pythium ultimum is no less than 80%.
As to `COC(=O)Nc1ccc(-c2cnc3ccc(C(=O)N(c4ccc(F)cc4)C(C)C)cn23)cn1` [Compound 140, methyl N-[5-[6-[(4-fluorophenyl)-isopropyl-carbamoyl]imidazo[1,2-a]pyridin-3-yl]-2-pyridyl]carbamate], the pest or weed control at 200 ppm in the assay on Phytophthora infestans is no less than 80%. Further, the inhibition at 20 ppm with Pythium ultimum was no less than 80%.
`COC(=O)Nc1ccc(-c2cnc3c(C4CC4)cc(C(=O)N(C)c4ccc(F)cc4)cn23)cn1` [Compound 83, methyl N-[5-[8-cyclopropyl-6-[(4-fluorophenyl)-methyl-carbamoyl]imidazo[1,2-a]pyridin-3-yl]-2-pyridyl]carbamate]: the pest or weed control at 200 ppm with Phytophthora infestans is no less than 80%. Besides, in the assay on Pythium ultimum, the inhibition at 20 ppm is no less than 80%.
With `COC(=O)Nc1ccc(-c2cnc3ccc(C(=O)N(C)c4cccc(Cl)c4)cn23)cn1` [Compound 62, methyl N-[5-[6-[(3-chlorophenyl)-methyl-carbamoyl]imidazo[1,2-a]pyridin-3-yl]-2-pyridyl]carbamate], in the assay on Phytophthora infestans, the pest or weed control at 200 ppm was no less than 80%. The inhibition at 20 ppm in the assay on Pythium ultimum was no less than 80%.
Consider `COC(=O)Nc1ccc(-c2cnc3ccc(C(=O)N(CCC#N)c4ccc(F)cc4)cn23)cn1` [Compound 132, methyl N-[5-[6-[2-cyanoethyl-(4-fluorophenyl)carbamoyl]imidazo [1,2-a]pyridin-3-yl]-2-pyridyl]carbamate], for which, in the assay with Phytophthora infestans, the pest or weed control at 200 ppm is no less than 80%. Moreover, in the assay on Pythium ultimum, the inhibition at 20 ppm is no less than 80%.
For the compound `CCN(C(=O)c1ccc2ncc(-c3ccc(NC(=O)OC)nc3)n2c1)c1ccc(OC)c(OC)c1` [Compound 119, methyl N-[5-[6-[(3,4-dimethoxyphenyl)-ethyl-carbamoyl]imidazo[1,2-a]pyridin-3-yl]-2-pyridyl]carbamate], the pest or weed control at 200 ppm in the assay with Phytophthora infestans is no less than 80%.
Regarding `COC(=O)Nc1ccc(-c2cnc3ccc(C(=O)N(CCC#N)c4ccc(Cl)cc4)cn23)cn1` [Compound 128, methyl N-[5-[6-[(4-chlorophenyl)-(2-cyanoethyl)carbamoyl]imidazo[1,2-a]pyridin-3-yl]-2-pyridyl]carbamate], the pest or weed control at 200 ppm with Phytophthora infestans is no less than 80%. For the same compound, in the assay with Pythium ultimum, the inhibition at 20 ppm was no less than 80%.
As for `CC(=O)Nc1ccc(-c2cnc3c(C)cc(C(=O)N(C)c4ccc(F)cc4)cn23)cn1` [Compound 168, 3-(6-acetamido-3-pyridyl)-N-(4-fluorophenyl)-N,8-dimethyl-imidazo[1,2-a]pyridine-6-carboxamide], in the assay with Phytophthora infestans, the pest or weed control at 200 ppm was no less than 80%. The inhibition at 20 ppm in the assay on Pythium ultimum was no less than 80%.
Consider `CNC(=O)c1cccc(N(C)C(=O)c2ccc3ncc(-c4ccc(NC(=O)OC)nc4)n3c2)c1` [Compound 115, methyl N-[5-[6-[methyl-[3-(methylcarbamoyl)phenyl]carbamoyl]imidazo[1,2-a]pyridin-3-yl]-2-pyridyl]carbamate], for which the pest or weed control at 200 ppm in the assay on Phytophthora infestans was no less than 80%. For the same compound, the inhibition at 20 ppm in the assay on Pythium ultimum is no less than 80%.
Turning to `COC(=O)Nc1ccc(-c2cnc3ccc(C(=O)N(CCC#N)c4cccc(C)c4)cn23)cn1` [Compound 130, methyl N-[5-[6-[2-cyanoethyl(m-tolyl)carbamoyl]imidazo [1,2-a]pyridin-3-yl]-2-pyridyl]carbamate], in the assay with Phytophthora infestans, the pest or weed control at 200 ppm is no less than 80%. Besides, in the assay with Pythium ultimum, the inhibition at 20 ppm was no less than 80%.
Turning to `CNC(=O)Nc1ccc(-c2cnc3ccc(C(=O)N(C)c4ccc(F)c(OC)c4)cn23)cc1` [Compound 80, N-(4-fluoro-3-methoxy-phenyl)-N-methyl-3-[4-(methylcarbamoyl-amino)phenyl]imidazo[1,2-a]pyridine-6-carboxamide], in the assay on Phytophthora infestans, the pest or weed control at 200 ppm is no less than 80%. For the same compound, the inhibition at 20 ppm in the assay on Pythium ultimum is no less than 80%.
`COC(=O)Nc1ccc(-c2cnc3ccc(C(=O)N(CS(C)(=O)=O)c4ccc(F)c(OC)c4)cn23)cn1` [Compound 92, methyl N-[5-[6-[(4-fluoro-3-methoxy-phenyl)-(methylsulfonylmethyl)carbamoyl]imidazo[1,2-a]pyridin-3-yl]-2-pyridyl] carbamate]: the pest or weed control at 200 ppm in the assay on Phytophthora infestans was no less than 80%. The inhibition at 20 ppm with Pythium ultimum is no less than 80%.
Take `CCOC(=O)CN(C(=O)c1ccc2ncc(-c3ccc(NC(=O)OC)nc3)n2c1)c1ccc(F)cc1` [Compound 150, ethyl 2-(4-fluoro-N-[3-[6-(methoxy-carbonylamino)-3-pyridyl]imidazo[1,2-a]pyridine-6-carbonyl]anilino)acetate]: the inhibition at 20 ppm in the assay with Pythium ultimum is no less than 80%.
For `COCCOc1cc(N(C)C(=O)c2ccc3ncc(-c4ccc(NC(=O)OC)nc4)n3c2)ccc1F` [Compound 77, methyl N-[5-[6-[[4-fluoro-3-(2-methoxyethoxy)phenyl]-methyl-carbamoyl]imidazo[1,2-a]pyridin-3-yl]-2-pyridyl]carbamate], in the assay with Phytophthora infestans, the pest or weed control at 200 ppm is no less than 80%. In addition, the inhibition at 20 ppm in the assay with Pythium ultimum was no less than 80%.
As to `COC(=O)Nc1ccc(-c2cnc3ccc(C(=O)N(C)c4ccnc(C)c4)cn23)cc1` [Compound 12, methyl N-[4-[6-[methyl-(2-methyl-4-pyridyl)carbamoyl]imidazo [1,2-a]pyridin-3-yl]phenyl]carbamate], the inhibition at 20 ppm with Pythium ultimum was no less than 80%.
`CCOC(=O)c1cccc(N(CC)C(=O)c2ccc3ncc(-c4ccc(NC(=O)OC)nc4)n3c2)c1` [Compound 122, ethyl 3-[ethyl-[3-[6-(methoxycarbonyl-amino)-3-pyridyl]imidazo[1,2-a]pyridine-6-carbonyl]amino]benzoate]: the inhibition at 20 ppm with Pythium ultimum is no less than 80%.
`COC(=O)Nc1ccc(-c2cnc3ccc(C(=O)N(C)c4ccnc(F)c4)cn23)cn1` [Compound 71, methyl N-[5-[6-[(2-fluoro-4-pyridyl)-methyl-carbamoyl]imidazo[1,2-a]pyridin-3-yl]-2-pyridyl]carbamate]: in the assay on Phytophthora infestans, the pest or weed control at 200 ppm was no less than 80%. For the same compound, the inhibition at 20 ppm with Pythium ultimum was no less than 80%.
On to `CCN(C(=O)c1ccc2ncc(-c3ccc(NC(=O)OC)nc3)n2c1)c1cccc(C#N)c1` [Compound 141, methyl N-[5-[6-[(3-cyanophenyl)-ethyl-carbamoyl]imidazo[1,2-a]pyridin-3-yl]-2-pyridyl]carbamate], for which, in the assay on Pythium ultimum, the inhibition at 20 ppm was no less than 80%.
Same read-out and setting: then `COC(=O)Nc1ccc(-c2cnc3cc(Br)c(C(=O)N(C)c4ccc(Cl)cc4)cn23)cc1` [Compound 34, methyl N-[4-[7-bromo-6-[(4-chlorophenyl)-methyl-carbamoyl]imidazo[1,2-a]pyridin-3-yl]phenyl]carbamate], with no less than 80%.
The same measure, in the same setting: then `CCCN(C(=O)c1ccc2ncc(-c3ccc(NC(=O)OC)cc3)n2c1)c1ccc(Cl)cc1` [Compound 30, methyl N-[4-[6-[(4-chlorophenyl)-propyl-carbamoyl]imidazo[1,2-a]pyridin-3-yl]phenyl]carbamate], with no less than 80%.

The record behind these values is patent US20240425500A1 (priority 2021, published 2024).
